No end group written: not given here.
test system: CEA CTL T-Vac8; assay: CTL cytotoxicity screening of the CAP1 analog panel, 111In release from peptide-incubated C1R-A2 cells; type: cell-based, human; settings: peptide at 1, 0.1 and 0.01 µg/ml, E:T=1.45:1, isotope release after 4 hours

Compound | activation of T-Vac8 cytotoxicity (lysis of peptide-incubated targets)
CC(C)C[C@H](NC(=O)[C@H](CC(N)=O)NC(=O)[C@H](CC(C)C)NC(=O)[C@H](CC(=O)O)NC(=O)[C@H](C)NC(=O)CNC(=O)[C@H](CO)NC(=O)[C@H](CC(C)C)NC(=O)[C@@H](N)Cc1ccc(O)cc1)C(=O)O [CAP1-6D] | activated T-Vac8 cytotoxicity and seemed to be equal to or better than CAP1
CC[C@H](C)[C@H](NC(=O)[C@H](CC(N)=O)NC(=O)[C@H](C)NC(=O)CNC(=O)[C@H](CO)NC(=O)[C@H](CC(C)C)NC(=O)[C@@H](N)Cc1ccc(O)cc1)C(=O)N[C@@H](CC(N)=O)C(=O)N[C@@H](CC(C)C)C(=O)O [CAP1-7I] | appeared to be active
YLSGACLNL [CAP1-6C] | activated T-Vac8 cytotoxicity and seemed to be equal to or better than CAP1
YLSGFNLNL [CAP1-5F] | provided stimulation, albeit at reduced levels compared to CAP1 itself
YLSGINLNL [CAP1-5I] | provided stimulation, albeit at reduced levels compared to CAP1 itself
YLSGSNLNL [CAP1-5S] | provided stimulation, albeit at reduced levels compared to CAP1 itself

Reference: patent EP1447414B1, “Antagonist peptides of carcinoembryonic antigen (CEA)” (THE GOVERNMENT OF THE UNITED STATES OF AMERICA, as …, priority 1997, dated 2007)
